Test results as given in the kinase profiling compilation of Christmann-Franck et al. (2016).
One block for each compound: values may come before it.

Columns and labels:
Assay in all cases: radiometric filter-binding kinase assay
STK3 (human) = STK3 (human) (UniProt Q13188)
PRKACA (human) = PRKACA (human) (UniProt P17612)
PAK7 (human) = PAK7 (human) (UniProt Q9P286)
EPHB4 (human) = EPHB4 (human) (UniProt P54760)
MAPKAPK5 (human) = MAPKAPK5 (human) (UniProt Q8IW41)
MAPKAPK2 (human) = MAPKAPK2 (human) (UniProt P49137)
DYRK1A (human) = DYRK1A (human) (UniProt Q13627)
BRSK2 (human) = BRSK2 (human) (UniProt Q8IWQ3); conditions: compound 10.0 µM
PRKCZ (human) = PRKCZ (human) (UniProt Q05513)
CAMKK2 (human) = CAMKK2 (human) (UniProt Q96RR4)
MAP2K2 (human) = MAP2K2 (human) (UniProt P36507)
PIM3 (human) = PIM3 (human) (UniProt Q86V86)
PHKG1 (human) = PHKG1 (human) (UniProt Q16816)
IKBKE (human) = IKBKE (human) (UniProt Q14164)
GSK3B (human) = GSK3B (human) (UniProt P49841)
IGF1R (human) = IGF1R (human) (UniProt P08069)
FGFR1 (human) = FGFR1 (human) (UniProt P11362)
PIM2 (human) = PIM2 (human) (UniProt Q9P1W9)
MAP2K6 (human) = MAP2K6 (human) (UniProt P52564)
MAPK3 (human) = MAPK3 (human) (UniProt P27361)
EEF2K (human) = EEF2K (human) (UniProt O00418)
SYK (human) = SYK (human) (UniProt P43405)
BRSK1 (human) = BRSK1 (human) (UniProt Q8TDC3)
HIPK3 (human) = HIPK3 (human) (UniProt Q9H422)
MAPK9 (human) = MAPK9 (human) (UniProt P45984)
MAPK13 (human) = MAPK13 (human) (UniProt O15264)
PRKAA1 or PRKAA2 (rat) = conditions: accession and sequence are those of the human protein
PIM1 (human) = PIM1 (human) (UniProt P11309)
MARK1 (human) = MARK1 (human) (UniProt Q9P0L2)
[1] = system: SGK1 (human), O00141 [S422D]
MKNK1 (human) = MKNK1 (human) (UniProt Q9BUB5)
MAP3K5 (human) = MAP3K5 (human) (UniProt Q99683)
DAPK1 (human) = DAPK1 (human) (UniProt P53355)
ERBB4 (human) = ERBB4 (human) (UniProt Q15303)
MELK (human) = MELK (human) (UniProt Q14680)
Chain of MELK (human) (Q14680 whole entry, looked up): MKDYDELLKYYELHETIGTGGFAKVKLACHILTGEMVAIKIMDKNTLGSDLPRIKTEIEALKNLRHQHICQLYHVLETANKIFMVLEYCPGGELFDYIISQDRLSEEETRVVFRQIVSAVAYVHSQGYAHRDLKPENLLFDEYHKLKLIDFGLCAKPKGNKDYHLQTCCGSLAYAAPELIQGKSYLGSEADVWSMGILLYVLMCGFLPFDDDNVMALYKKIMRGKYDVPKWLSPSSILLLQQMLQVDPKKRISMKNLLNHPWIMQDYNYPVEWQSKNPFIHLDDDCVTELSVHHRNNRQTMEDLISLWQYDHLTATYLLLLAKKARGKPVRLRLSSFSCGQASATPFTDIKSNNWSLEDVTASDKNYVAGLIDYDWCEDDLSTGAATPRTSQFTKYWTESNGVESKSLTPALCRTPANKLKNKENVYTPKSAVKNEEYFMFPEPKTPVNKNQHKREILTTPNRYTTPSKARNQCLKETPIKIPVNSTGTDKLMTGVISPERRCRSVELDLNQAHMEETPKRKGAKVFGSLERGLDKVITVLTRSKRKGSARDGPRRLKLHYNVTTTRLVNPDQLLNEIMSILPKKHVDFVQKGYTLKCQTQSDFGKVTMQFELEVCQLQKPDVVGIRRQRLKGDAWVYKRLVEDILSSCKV

Chain of FGFR1 (human) (P11362 whole entry, looked up): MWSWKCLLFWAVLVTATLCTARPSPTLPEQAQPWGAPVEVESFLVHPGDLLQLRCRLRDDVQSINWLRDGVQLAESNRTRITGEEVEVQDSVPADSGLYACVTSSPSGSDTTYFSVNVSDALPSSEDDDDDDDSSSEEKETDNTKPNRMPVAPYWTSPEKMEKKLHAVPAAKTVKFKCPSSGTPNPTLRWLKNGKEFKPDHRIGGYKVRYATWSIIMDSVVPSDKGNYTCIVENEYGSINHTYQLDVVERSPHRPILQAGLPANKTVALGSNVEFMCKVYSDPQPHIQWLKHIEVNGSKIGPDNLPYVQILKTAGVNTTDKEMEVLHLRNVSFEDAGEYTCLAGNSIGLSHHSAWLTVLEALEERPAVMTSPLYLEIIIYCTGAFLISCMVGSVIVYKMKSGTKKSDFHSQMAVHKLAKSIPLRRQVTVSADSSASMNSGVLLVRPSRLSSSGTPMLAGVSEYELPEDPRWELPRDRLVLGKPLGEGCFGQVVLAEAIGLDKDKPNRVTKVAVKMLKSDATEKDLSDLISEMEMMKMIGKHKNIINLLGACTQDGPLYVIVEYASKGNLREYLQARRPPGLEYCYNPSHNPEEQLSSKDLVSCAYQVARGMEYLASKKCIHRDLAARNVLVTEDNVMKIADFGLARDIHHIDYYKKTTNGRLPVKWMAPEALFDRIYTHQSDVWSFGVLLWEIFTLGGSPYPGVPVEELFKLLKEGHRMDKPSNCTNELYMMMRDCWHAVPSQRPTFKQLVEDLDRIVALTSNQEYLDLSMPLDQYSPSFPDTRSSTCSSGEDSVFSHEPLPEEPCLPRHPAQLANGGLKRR
Chain of PIM2 (human) (Q9P1W9 whole entry, looked up): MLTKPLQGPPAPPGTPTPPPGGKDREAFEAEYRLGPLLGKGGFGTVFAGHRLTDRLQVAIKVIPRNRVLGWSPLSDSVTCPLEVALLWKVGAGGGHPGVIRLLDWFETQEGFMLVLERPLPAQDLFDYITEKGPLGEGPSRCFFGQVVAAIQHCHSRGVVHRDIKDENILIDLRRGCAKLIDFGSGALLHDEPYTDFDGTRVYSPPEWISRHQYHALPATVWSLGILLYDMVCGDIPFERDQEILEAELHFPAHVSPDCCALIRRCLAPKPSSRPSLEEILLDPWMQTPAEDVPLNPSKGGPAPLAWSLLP
Chain of PIM1 (human) (P11309 whole entry, looked up): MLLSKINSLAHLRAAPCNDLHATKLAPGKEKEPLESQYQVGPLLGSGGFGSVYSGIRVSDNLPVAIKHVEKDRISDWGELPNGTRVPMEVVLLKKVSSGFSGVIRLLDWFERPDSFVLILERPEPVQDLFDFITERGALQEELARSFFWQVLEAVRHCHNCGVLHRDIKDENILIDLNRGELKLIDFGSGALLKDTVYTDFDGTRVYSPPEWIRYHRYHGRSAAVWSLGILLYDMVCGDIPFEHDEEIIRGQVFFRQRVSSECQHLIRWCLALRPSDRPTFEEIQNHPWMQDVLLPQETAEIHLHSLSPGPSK
Chain of EEF2K (human) (O00418 whole entry, looked up): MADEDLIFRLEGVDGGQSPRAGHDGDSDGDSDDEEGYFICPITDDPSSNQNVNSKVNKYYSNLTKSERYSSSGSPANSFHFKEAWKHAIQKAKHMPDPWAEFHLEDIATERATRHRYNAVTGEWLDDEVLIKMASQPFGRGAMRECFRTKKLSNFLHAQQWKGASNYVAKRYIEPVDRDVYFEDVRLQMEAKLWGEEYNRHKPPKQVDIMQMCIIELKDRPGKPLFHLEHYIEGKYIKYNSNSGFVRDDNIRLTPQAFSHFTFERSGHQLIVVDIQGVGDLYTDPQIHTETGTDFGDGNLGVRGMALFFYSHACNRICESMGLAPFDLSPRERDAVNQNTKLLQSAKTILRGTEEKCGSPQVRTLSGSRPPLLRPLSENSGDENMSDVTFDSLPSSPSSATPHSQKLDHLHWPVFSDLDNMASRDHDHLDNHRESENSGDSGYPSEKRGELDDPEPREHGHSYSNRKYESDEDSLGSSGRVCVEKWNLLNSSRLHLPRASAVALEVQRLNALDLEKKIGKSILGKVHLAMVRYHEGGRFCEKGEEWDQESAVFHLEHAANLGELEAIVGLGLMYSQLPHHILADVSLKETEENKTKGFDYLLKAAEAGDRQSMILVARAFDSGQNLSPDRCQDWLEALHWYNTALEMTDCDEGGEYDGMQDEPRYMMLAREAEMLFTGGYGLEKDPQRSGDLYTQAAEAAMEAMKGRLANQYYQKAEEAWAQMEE
Chain of IGF1R (human) (P08069 whole entry, looked up): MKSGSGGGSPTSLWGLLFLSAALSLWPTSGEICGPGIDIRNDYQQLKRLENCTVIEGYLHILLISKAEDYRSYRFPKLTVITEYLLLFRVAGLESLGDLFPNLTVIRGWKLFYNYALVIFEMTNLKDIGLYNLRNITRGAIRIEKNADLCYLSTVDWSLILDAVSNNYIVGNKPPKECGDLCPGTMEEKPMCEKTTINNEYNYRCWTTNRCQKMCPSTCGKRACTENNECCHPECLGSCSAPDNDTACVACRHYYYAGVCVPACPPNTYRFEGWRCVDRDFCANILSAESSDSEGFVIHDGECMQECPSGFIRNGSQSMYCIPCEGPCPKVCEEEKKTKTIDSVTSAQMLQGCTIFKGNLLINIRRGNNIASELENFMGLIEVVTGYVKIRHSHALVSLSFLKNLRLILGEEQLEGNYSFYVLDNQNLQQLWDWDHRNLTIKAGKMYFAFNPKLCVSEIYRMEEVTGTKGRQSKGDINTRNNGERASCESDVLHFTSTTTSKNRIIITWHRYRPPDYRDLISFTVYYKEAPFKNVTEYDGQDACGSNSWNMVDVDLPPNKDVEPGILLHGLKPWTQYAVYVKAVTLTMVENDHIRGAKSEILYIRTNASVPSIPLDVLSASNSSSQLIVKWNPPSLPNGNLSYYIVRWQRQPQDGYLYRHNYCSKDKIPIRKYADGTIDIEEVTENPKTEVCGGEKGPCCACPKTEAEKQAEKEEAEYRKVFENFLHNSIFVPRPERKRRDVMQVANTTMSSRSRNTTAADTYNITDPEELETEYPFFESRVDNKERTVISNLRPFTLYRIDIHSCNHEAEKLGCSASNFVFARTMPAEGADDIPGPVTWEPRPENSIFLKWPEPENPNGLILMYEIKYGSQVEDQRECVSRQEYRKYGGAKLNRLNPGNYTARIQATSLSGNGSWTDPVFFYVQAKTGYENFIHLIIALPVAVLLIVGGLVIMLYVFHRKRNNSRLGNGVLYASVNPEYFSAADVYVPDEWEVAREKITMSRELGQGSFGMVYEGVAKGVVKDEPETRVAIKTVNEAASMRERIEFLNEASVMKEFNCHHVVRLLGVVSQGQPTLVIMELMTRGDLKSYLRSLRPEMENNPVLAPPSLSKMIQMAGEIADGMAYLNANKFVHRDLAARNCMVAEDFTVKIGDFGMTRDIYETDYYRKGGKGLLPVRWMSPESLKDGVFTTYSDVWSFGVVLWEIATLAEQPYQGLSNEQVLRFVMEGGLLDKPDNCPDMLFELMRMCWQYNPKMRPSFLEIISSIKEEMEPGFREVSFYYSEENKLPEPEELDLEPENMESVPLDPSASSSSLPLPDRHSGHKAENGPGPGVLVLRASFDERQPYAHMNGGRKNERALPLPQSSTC
Chain of CAMKK2 (human) (Q96RR4 whole entry, looked up): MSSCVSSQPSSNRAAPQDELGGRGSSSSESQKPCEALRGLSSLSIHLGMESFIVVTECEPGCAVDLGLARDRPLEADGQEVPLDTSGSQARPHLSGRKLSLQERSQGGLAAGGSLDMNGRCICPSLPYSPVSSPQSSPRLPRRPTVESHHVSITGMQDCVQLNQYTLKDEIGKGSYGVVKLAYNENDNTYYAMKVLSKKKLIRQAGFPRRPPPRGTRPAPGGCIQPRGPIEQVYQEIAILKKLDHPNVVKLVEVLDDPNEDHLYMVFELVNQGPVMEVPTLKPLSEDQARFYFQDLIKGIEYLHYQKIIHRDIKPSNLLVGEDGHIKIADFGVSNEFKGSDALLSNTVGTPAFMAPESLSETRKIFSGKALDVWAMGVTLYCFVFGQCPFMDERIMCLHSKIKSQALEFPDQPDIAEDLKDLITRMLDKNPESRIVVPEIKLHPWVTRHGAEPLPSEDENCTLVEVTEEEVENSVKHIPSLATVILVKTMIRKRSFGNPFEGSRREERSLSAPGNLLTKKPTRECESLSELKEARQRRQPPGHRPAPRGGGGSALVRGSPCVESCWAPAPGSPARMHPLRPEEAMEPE

residual activity (STK3 (human); compound 10.0 µM): 100% | residual activity (PRKACA (human); compound 10.0 µM): 95% | residual activity (PAK7 (human); compound 10.0 µM): 94% | residual activity (EPHB4 (human); compound 10.0 µM): 91% | residual activity (MAPKAPK5 (human); compound 10.0 µM): 92% | residual activity (MAPKAPK2 (human); compound 10.0 µM): 88% | residual activity (DYRK1A (human); compound 10.0 µM): 88% | residual activity (BRSK2 (human)): 90% | residual activity (PRKCZ (human); compound 10.0 µM): 95% | residual activity (CAMKK2 (human); compound 10.0 µM): 86% | residual activity (MAP2K2 (human); compound 10.0 µM): 94% | residual activity (PIM3 (human); compound 10.0 µM): 92% | residual activity (PHKG1 (human); compound 10.0 µM): 44% | residual activity (IKBKE (human); compound 10.0 µM): 91% | residual activity (GSK3B (human); compound 10.0 µM): 88% | residual activity (IGF1R (human); compound 10.0 µM): 87% | residual activity (FGFR1 (human); compound 10.0 µM): 69% | residual activity (PIM2 (human); compound 10.0 µM): 94% | residual activity (MAP2K6 (human); compound 10.0 µM): 92% | residual activity (MAPK3 (human); compound 10.0 µM): 106% | residual activity (EEF2K (human); compound 10.0 µM): 83% | residual activity (SYK (human); compound 10.0 µM): 66% | residual activity (BRSK1 (human); compound 10.0 µM): 90% | residual activity (HIPK3 (human); compound 10.0 µM): 118% | residual activity (MAPK9 (human); compound 10.0 µM): 87% | residual activity (MAPK13 (human); compound 10.0 µM): 98% | residual activity (PRKAA1 or PRKAA2 (rat); compound 10.0 µM): 82% | residual activity (PIM1 (human); compound 10.0 µM): 88% | residual activity (MARK1 (human); compound 10.0 µM): 81% | residual activity ([1]; compound 10.0 µM): 78% | residual activity (MKNK1 (human); compound 10.0 µM): 79% | residual activity (MAP3K5 (human); compound 10.0 µM): 81% | residual activity (DAPK1 (human); compound 10.0 µM): 88% | residual activity (ERBB4 (human); compound 10.0 µM): 72% | residual activity (MELK (human); compound 10.0 µM): 80%
SMILES: CC(C)C[C@H](NC(=O)CNC(=O)c1cc(Cl)ccc1Cl)B1OC(=O)CC(CC(=O)O)(C(=O)O)O1 (stereo partly specified)

residual activity (STK3 (human); compound 1.0 µM): 19% | residual activity (STK3 (human); compound 10.0 µM): 7% | residual activity (PRKACA (human); compound 1.0 µM): 101% | residual activity (PRKACA (human); compound 10.0 µM): 83% | residual activity (PAK7 (human); compound 1.0 µM): 80% | residual activity (PAK7 (human); compound 10.0 µM): 58% | residual activity (EPHB4 (human); compound 1.0 µM): 94% | residual activity (EPHB4 (human); compound 10.0 µM): 82% | residual activity (MAPKAPK5 (human); compound 1.0 µM): 101% | residual activity (MAPKAPK2 (human); compound 1.0 µM): 99% | residual activity (MAPKAPK2 (human); compound 10.0 µM): 85% | residual activity (DYRK1A (human); compound 1.0 µM): 73% | residual activity (DYRK1A (human); compound 10.0 µM): 81% | residual activity (BRSK2 (human)): 30% | residual activity (PRKCZ (human); compound 1.0 µM): 97% | residual activity (PRKCZ (human); compound 10.0 µM): 95% | residual activity (CAMKK2 (human); compound 1.0 µM): 112% | residual activity (CAMKK2 (human); compound 10.0 µM): 86% | residual activity (MAP2K2 (human); compound 1.0 µM): 75% | residual activity (MAP2K2 (human); compound 10.0 µM): 57% | residual activity (PIM3 (human); compound 1.0 µM): 90% | residual activity (PIM3 (human); compound 10.0 µM): 73% | residual activity (PHKG1 (human); compound 1.0 µM): 5% | residual activity (PHKG1 (human); compound 10.0 µM): 4% | residual activity (IKBKE (human); compound 1.0 µM): 9% | residual activity (IKBKE (human); compound 10.0 µM): 6% | residual activity (GSK3B (human); compound 1.0 µM): 90% | residual activity (GSK3B (human); compound 10.0 µM): 68% | residual activity (IGF1R (human); compound 1.0 µM): 89% | residual activity (IGF1R (human); compound 10.0 µM): 92% | residual activity (FGFR1 (human); compound 1.0 µM): 49% | residual activity (FGFR1 (human); compound 10.0 µM): 49% | residual activity (PIM2 (human); compound 1.0 µM): 93% | residual activity (PIM2 (human); compound 10.0 µM): 78% | residual activity (MAP2K6 (human); compound 1.0 µM): 91% | residual activity (MAP2K6 (human); compound 10.0 µM): 84% | residual activity (MAPK3 (human); compound 1.0 µM): 101% | residual activity (MAPK3 (human); compound 10.0 µM): 77% | residual activity (EEF2K (human); compound 1.0 µM): 105% | residual activity (EEF2K (human); compound 10.0 µM): 98% | residual activity (SYK (human); compound 1.0 µM): 95% | residual activity (SYK (human); compound 10.0 µM): 87% | residual activity (BRSK1 (human); compound 1.0 µM): 40% | residual activity (HIPK3 (human); compound 1.0 µM): 102% | residual activity (HIPK3 (human); compound 10.0 µM): 61% | residual activity (MAPK9 (human); compound 1.0 µM): 95% | residual activity (MAPK9 (human); compound 10.0 µM): 90% | residual activity (MAPK13 (human); compound 1.0 µM): 112% | residual activity (MAPK13 (human); compound 10.0 µM): 86% | residual activity (PRKAA1 or PRKAA2 (rat); compound 1.0 µM): 10% | residual activity (PRKAA1 or PRKAA2 (rat); compound 10.0 µM): 9% | residual activity (PIM1 (human); compound 1.0 µM): 94% | residual activity (PIM1 (human); compound 10.0 µM): 71% | residual activity (MARK1 (human); compound 1.0 µM): 33% | residual activity (MARK1 (human); compound 10.0 µM): 31% | residual activity ([1]; compound 1.0 µM): 105% | residual activity (MKNK1 (human); compound 1.0 µM): 47% | residual activity (MKNK1 (human); compound 10.0 µM): 34% | residual activity (MAP3K5 (human); compound 1.0 µM): 83% | residual activity (MAP3K5 (human); compound 10.0 µM): 69% | residual activity (DAPK1 (human); compound 1.0 µM): 54% | residual activity (DAPK1 (human); compound 10.0 µM): 51% | residual activity (ERBB4 (human); compound 1.0 µM): 78% | residual activity (ERBB4 (human); compound 10.0 µM): 84% | residual activity (MELK (human); compound 1.0 µM): 84% | residual activity (MELK (human); compound 10.0 µM): 59%
SMILES: COc1cc2ncn(-c3cc(OCc4ccccc4S(C)(=O)=O)c(C#N)s3)c2cc1OC
